From patent US9834514B2, “Antibiotic sensitivity-restoring and photosensitive agents” (New Mexico Tech Research Foundation, priority 2015, dated 2017)
Values after ≈ are worked out from the molar mass of the structure shown. Where two headings read alike, the source gives them in different places.

Legend:
[1] = test system: MRSA; experiment: Minimum bactericidal concentration (MBC) with and without white light; assay type: cell-based, S. aureus; conditions: Staphylococcus aureus, light or radiation study
Protocol: The bacterial media was inoculated with bacteria and incubated overnight. The bacterial cultures were diluted to 5×10^8 CFU/mL using a McFarland latex turbidity standard (0.5). Compound 1 was diluted with sterile DMSO, which was added to the cell suspension in glass culture tubes. The cells were then incubated for 30 minutes at 37° C. on a rotary shaking incubator at 150 rpm. 500 μL of the treated cell suspension was added to a well on a sterile ceramic drop plate. Non-coherent white light from a Lumacare™ LC-122 unit was used to irradiate the samples. The end of the light probe was placed 3 cm above the sample well, perpendicular to the surface of the sample, and light was applied for 2 minutes (15 seconds light, 15 seconds dark). 200 μL of the irradiated sample was transferred to a 96-well plastic microtiter plate and five ten-fold dilutions were made in the media. 10 μL of each dilution was dripped onto an agar media plate and was allowed to streak down the plate by tilting the plate down. The agar plates were incubated at 37° C. overnight and colony counts were performed to calculate the CFU/mL.
TABLE 14 details the MBC values of compounds 1-6 against MRSA with and without irradiation with white light. Irradiation involved treatment with a LumaCare™ light source at 3 cm from media for 1 min.

[2] = test system: HeLa cells; experiment: Toxicity (IC50) on HeLa cells; assay type: cell-based, human; conditions: cancerous cervical epithelium HeLa cells; for IC50: Homo sapiens
Protocol: The toxicities of the compounds of the invention were determined for human cancerous cervical epithelium HeLa and normal lung fibroblast WI38 cells. The toxicities of EPIs INF-55 and INF-55Cl were quantified as controls. […] TABLE 2 compares the toxicity of compounds 7-11 on HeLa cells and normal WI38 cells.

[3] = 1 min, LumaCare light source at 3 cm from media for 1 min, read-out: MBC with irradiation
[4] = no irradiation, read-out: MBC in the dark

Structure (SMILES) | IC50 [2] [µM] | other results
C(=C\c1[nH]c2ccccc2c1/C=C/c1ccccc1)/c1ccccc1 [Compound 2] |  | MBC [1, 3]: 0.5 µM (≈ 0.161 µg/mL); MBC [1, 4]: 100 µM (≈ 32.1 µg/mL)
COc1ccc(/C=C/c2[nH]c3ccccc3c2/C=C/c2ccc(OC)cc2)cc1 [Compound 3] |  | MBC [1, 3]: 0.5 µM (≈ 0.191 µg/mL); MBC [1, 4]: 200 µM (≈ 76.3 µg/mL)
Clc1ccccc1/C=C/c1[nH]c2ccccc2c1/C=C/c1ccccc1Cl [Compound 5] |  | MBC [1, 3]: 0.5 µM (≈ 0.195 µg/mL); MBC [1, 4]: 200 µM (≈ 78.1 µg/mL)
Clc1cccc(/C=C/c2[nH]c3ccccc3c2/C=C/c2cccc(Cl)c2)c1 [Compound 6] |  | MBC [1, 3]: 1 µM (≈ 0.39 µg/mL); MBC [1, 4]: 200 µM (≈ 78.1 µg/mL)
Clc1ccc(-c2cc3[nH]c4ccccc4c3cc2-c2ccc(Cl)cc2)cc1 [Compound 13] | 16.4 ± 1.1 | 
Clc1ccc(Sc2c(-c3ccc(Br)cc3)[nH]c3ccccc23)cc1 [Compound 14] | 12.2 ± 1.6 | 
Clc1ccc(-c2cc3ccccc3[nH]2)cc1 [Compound 15] |  | IC50 HeLa [2]: Non-Toxic
Clc1ccc(Sc2c(-c3ccc(Cl)cc3)[nH]c3ccccc23)cc1 [Compound 16] | 6.4 ± 1 | 
O=S(=O)(c1ccc(Cl)cc1)c1c(-c2ccc(Cl)cc2)[nH]c2ccccc12 [Compound 18] | 14.3 ± 0.7 | 
O=C(c1ccc(Cl)cc1)c1c(-c2ccc(Cl)cc2)[nH]c2ccccc12 [Compound 19] | 35.8 ± 6 | 
O=[N+]([O-])c1ccc2[nH]c(-c3ccc(Cl)cc3)cc2c1 [Compound 20] |  | IC50 HeLa [2]: Non-Toxic
Clc1ccc(Sc2c(-c3ccc(Cl)cc3)[nH]c3ccc(Cl)cc23)cc1 [Compound 21] | 8.2 ± 1 | 
Clc1ccc(Oc2c(-c3ccc(Cl)cc3)[nH]c3ccc(Br)cc23)cc1 [Compound 22] | 3.2 ± 0.4 | 
Fc1ccc2[nH]c(-c3ccc(Cl)cc3)c(Oc3ccc(Cl)cc3)c2c1 [Compound 23] | 12.9 ± 3.2 | 
COc1ccc2[nH]c(-c3ccc(Cl)cc3)c(Oc3ccc(Cl)cc3)c2c1 [Compound 24] | 23.9 ± 1.8 | 
Fc1cccc2c(Oc3ccc(Cl)cc3)c(-c3ccc(Cl)cc3)[nH]c12 [Compound 25] | 13 ± 3.5 | 
